Measurements published in patent US11702404B2, “GLP-1R modulating compounds” (priority 2019, dated 2023).
Like-named read-outs stand apart in the source and are kept apart here.

Tests used:
[1] = molecular target: GLP-1R (Homo sapiens, UniProt P43220); assay: GLP-1R activation: cAMP increase in CHO cells stably expressing GLP-1R; format: cell-based
[2] = Microsomal stability, human liver microsomes (predicted hepatic clearance); conditions: predicted from in vitro microsomal stability data
[3] = cAMP increase, CHO cells stably expressing GLP-1R, 10 point dose response, 30 minutes incubation, read-out: EC50

GLP-1R, sequence (P43220 24-463): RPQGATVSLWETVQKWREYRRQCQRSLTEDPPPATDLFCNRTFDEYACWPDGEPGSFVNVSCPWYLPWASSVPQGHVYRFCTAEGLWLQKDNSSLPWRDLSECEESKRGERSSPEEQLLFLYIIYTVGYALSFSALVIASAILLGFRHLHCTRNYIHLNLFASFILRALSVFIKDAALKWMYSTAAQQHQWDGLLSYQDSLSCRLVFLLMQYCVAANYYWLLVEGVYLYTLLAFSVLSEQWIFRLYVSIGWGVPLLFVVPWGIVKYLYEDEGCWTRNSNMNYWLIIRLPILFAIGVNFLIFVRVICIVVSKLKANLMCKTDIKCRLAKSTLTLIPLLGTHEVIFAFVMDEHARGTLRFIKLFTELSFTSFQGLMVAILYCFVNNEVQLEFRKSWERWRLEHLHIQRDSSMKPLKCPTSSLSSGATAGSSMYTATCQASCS

SMILES | EC50 [1, 3] | Predicted Hepatic Clearance (Pred. Cl.) [2] | EC50 ([1]; EC50 (nM)) | EC50 ([1]; read-out: EC50)
CCn1cncc1Cn1c(Cc2ccc(-c3cccc(OCc4ccc(C#N)cc4F)c3)cc2F)nc2ccc(C(=O)O)cc21 [Example 527, 2-((3′-((4-cyano-2-fluorobenzyl)oxy)-3-fluoro-[1,1′-biphenyl]-4-yl)methyl)-1-((1-ethyl-1H-imidazol-5-yl)methyl)-1H-benzo[d]imidazole-6-carboxylic acid] | 1.84 nM | 3.67 mL/min/kg |  | 
N#Cc1ccc(COc2cccc(-c3ccc(Cc4nc5ccc(C(=O)O)cc5n4CC4(C(F)F)CC4)cc3F)n2)c(F)c1 [Example 528, 2-(4-(6-((4-cyano-2-fluorobenzyl)oxy)pyridin-2-yl)-3-fluorobenzyl)-1-((1-(difluoromethyl)cyclopropyl)methyl)-1H-benzo[d]imidazole-6-carboxylic acid] | 0.45 nM | 7.5 mL/min/kg |  | 
N#CCC1(Cn2c(Cc3ccc(-c4cccc(OCc5ccc(C#N)cc5F)n4)c(F)c3)nc3ccc(C(=O)O)cc32)CC1 [Example 530, 2-(4-(6-((4-cyano-2-fluorobenzyl)oxy)pyridin-2-yl)-3-fluorobenzyl)-1-((1-(cyanomethyl)cyclopropyl)methyl)-1H-benzo[d]imidazole-6-carboxylic acid] | 0.43 nM | 10.5 mL/min/kg |  | 
N#Cc1ccc(COc2cccc(-c3ccc(Cc4nc5ccc(C(=O)O)cc5n4Cc4ccccc4)c(F)c3)n2)c(F)c1 [Example 531, 1-benzyl-2-(4-(6-((4-cyano-2-fluorobenzyl)oxy)pyridin-2-yl)-2-fluorobenzyl)-1H-benzo[d]imidazole-6-carboxylic acid] | 12.8 nM | 2.25 mL/min/kg |  | 
N#Cc1ccc(COc2cccc(-c3ccc(Cc4nc5ccc(C(=O)O)cc5n4Cc4cncnc4)c(F)c3)n2)c(F)c1 [Example 532, 2-(4-(6-((4-cyano-2-fluorobenzyl)oxy)pyridin-2-yl)-2-fluorobenzyl)-1-(pyrimidin-5-ylmethyl)-1H-benzo[d]imidazole-6-carboxylic acid] | 58.6 nM | <1.83 mL/min/kg |  | 
CCn1nccc1Cn1c(Cc2ccc(-c3cccc(OCc4ccc(C#N)cc4F)n3)c(F)c2)nc2ccc(C(=O)O)cc21 [Example 533, 2-(4-(6-((4-cyano-2-fluorobenzyl)oxy)pyridin-2-yl)-3-fluorobenzyl)-1-((1-ethyl-1H-pyrazol-5-yl)methyl)-1H-benzo[d]imidazole-6-carboxylic acid] | 47.1 nM | 10 mL/min/kg |  | 
CCc1cnccc1Cn1c(Cc2ccc(-c3cccc(OCc4ccc(C#N)cc4F)n3)c(F)c2)nc2ccc(C(=O)O)cc21 [Example 534, 2-(4-(6-((4-cyano-2-fluorobenzyl)oxy)pyridin-2-yl)-3-fluorobenzyl)-1-((3-ethylpyridin-4-yl)methyl)-1H-benzo[d]imidazole-6-carboxylic acid] | 49.9 nM | 15.2 mL/min/kg |  | 
O=C(O)c1ccc2nc(Cc3ccc(-c4cccc(OCc5ccc(Cl)cc5F)n4)c(F)c3)n(CC3(CF)CC3)c2c1 [Example 535, 2-(4-(6-((4-chloro-2-fluorobenzyl)oxy)pyridin-2-yl)-3-fluorobenzyl)-1-((1-(fluoromethyl)cyclopropyl)methyl)-1H-benzo[d]imidazole-6-carboxylic acid] | 0.66 nM | 4.17 mL/min/kg |  | 
N#Cc1ccc(COc2cccc(-c3cc(F)c(Cc4nc5ccc(C(=O)O)cc5n4C[C@@H]4CCO4)cc3F)n2)cc1 [Example 536, (S)-2-(4-(6-((4-cyanobenzyl)oxy)pyridin-2-yl)-2,5-difluorobenzyl)-1-(oxetan-2-ylmethyl)-1H-benzo[d]imidazole-6-carboxylic acid] | 0.04 nM | 2.42 mL/min/kg |  | 
COCCn1c(Cc2c(F)cc(-c3cccc(OCc4ccc(C#N)cc4F)n3)cc2C#N)nc2ccc(C(=O)O)cc21 [Example 537, 2-(2-cyano-4-(6-((4-cyano-2-fluorobenzyl)oxy)pyridin-2-yl)-6-fluorobenzyl)-1-(2-methoxyethyl)-1H-benzo[d]imidazole-6-carboxylic acid] |  | 3.3 mL/min/kg | 6.89 nM | 
CC(=O)N1CC(F)(F)C[C@@H]1Cn1c(Cc2cc(F)c(-c3cccc(OCc4ccc(C#N)cc4F)n3)cc2F)nc2ccc(C(=O)O)cc21 [Example 539, (R)-1-((1-acetyl-4,4-difluoropyrrolidin-2-yl)methyl)-2-(4-(6-((4-cyano-2-fluorobenzyl)oxy)pyridin-2-yl)-2,5-difluorobenzyl)-1H-benzo[d]imidazole-6-carboxylic acid] |  | 6.33 mL/min/kg |  | 0.7 nM
N#Cc1ccc(COc2cccc(-c3cc(=O)n(Cc4nc5ccc(C(=O)O)cc5n4C[C@@H]4CCO4)cc3F)n2)c(F)c1 [Example 540, (S)-2-((6-((4-cyano-2-fluorobenzyl)oxy)-5′-fluoro-2′-oxo-[2,4′-bipyridin]-1′(2′H)-yl)methyl)-1-(oxetan-2-ylmethyl)-1H-benzo[d]imidazole-6-carboxylic acid] | 0.12 nM | 3.33 mL/min/kg |  | 
COCCn1c(Cc2cc(F)c(-c3ccc(OC)c(OCc4ccc(C#N)cc4F)n3)cc2F)nc2ccc(C(=O)O)cc21 [Example 541, 2-(4-(6-((4-cyano-2-fluorobenzyl)oxy)-5-methoxypyridin-2-yl)-2,5-difluorobenzyl)-1-(2-methoxyethyl)-1H-benzo[d]imidazole-6-carboxylic acid] | 28.3 nM | 3.67 mL/min/kg |  | 
COCCn1c(Cc2cc(F)c(-c3cccc(OCc4cccnc4OC(F)F)n3)cc2F)nc2ccc(C(=O)O)cc21 [Example 542, 2-(4-(6-((2-(difluoromethoxy)pyridin-3-yl)methoxy)pyridin-2-yl)-2,5-difluorobenzyl)-1-(2-methoxyethyl)-1H-benzo[d]imidazole-6-carboxylic acid] | 8.6 nM | 20 mL/min/kg |  | 
[2H]C([2H])(Oc1cccc(-c2cc(F)c(Cc3nc4ccc(C(=O)O)cc4n3CCOC)cc2F)n1)c1ccc(C#N)cc1F [Example 543, 2-(4-(6-((4-cyano-2-fluorophenyl)methoxy-d2)pyridin-2-yl)-2,5-difluorobenzyl)-1-(2-methoxyethyl)-1H-benzo[d]imidazole-6-carboxylic acid] | 1.51 nM | 4.67 mL/min/kg |  | 
COCCn1c(Cc2cc(F)c(-c3cccc(OCc4ccc(C(F)F)cc4F)n3)cc2F)nc2ccc(C(=O)O)cc21 [Example 544, 2-(4-(6-((4-(difluoromethyl)-2-fluorobenzyl)oxy)pyridin-2-yl)-2,5-difluorobenzyl)-1-(2-methoxyethyl)-1H-benzo[d]imidazole-6-carboxylic acid] | 0.96 nM | 3.17 mL/min/kg |  | 
N#Cc1ccc(COc2cccc(-c3cc(F)c(Cc4nc5ccc(C(=O)O)cc5n4[C@H]4CCCOC4)cc3F)n2)c(F)c1 [Example 545, 2-(4-(6-((4-cyano-2-fluorobenzyl)oxy)pyridin-2-yl)-2,5-difluorobenzyl)-1-(tetrahydro-2H-pyran-3-yl)-1H-benzo[d]imidazole-carboxylic acid] | 6.9 nM | 6.67 mL/min/kg |  | 
N#Cc1ccc(COc2cccc(-c3cc(F)c(Cc4nc5ccc(C(=O)O)cc5n4CC4CCOCC4)cc3F)n2)c(F)c1 [Example 546, 2-(4-(6-((4-cyano-2-fluorobenzyl)oxy)pyridin-2-yl)-2,5-difluorobenzyl)-1-((tetrahydro-2H-pyran-4-yl)methyl)-1H-benzo[d]imidazole-carboxylic acid] | 0.33 nM | 8.83 mL/min/kg |  | 
N#Cc1ccc(COc2cccc(-c3cc(F)c(Cc4nc5ccc(C(=O)O)cc5n4C4CCOCC4)cc3F)n2)c(F)c1 [Example 547, 2-(4-(6-((4-cyano-2-fluorobenzyl)oxy)pyridin-2-yl)-2,5-difluorobenzyl)-1-(tetrahydro-2H-pyran-4-yl)-1H-benzo[d]imidazole-carboxylic acid] | 3.43 nM | 7.33 mL/min/kg |  | 
N#Cc1ccc(COc2cccc(-c3ccc(Cc4nc5cc(C(=O)O)ccc5n4CC4(CF)CC4)c(F)c3)n2)c(F)c1 [Example 552, 2-(4-(6-((4-Cyano-2-fluorobenzyl)oxy)pyridin-2-yl)-2-fluorobenzyl)-1-((1-(fluoromethyl)cyclopropyl)methyl)-1H-benzo[d]imidazole-5-carboxylic acid] | 18.1 nM | <1.83 mL/min/kg |  | 
COCCn1c(Cc2ccc(-c3cccc(OCc4ccc(C#N)cc4F)n3)cc2F)nc2cc(C(=O)O)ccc21 [Example 553, 2-(4-(6-((4-cyano-2-fluorobenzyl)oxy)pyridin-2-yl)-2-fluorobenzyl)-1-(2-methoxyethyl)-1H-benzo[d]imidazole-5-carboxylic acid] | 19.8 nM | 4.17 mL/min/kg |  | 
COCCn1c(Cc2cc(F)c(-c3cccc(OCc4ccc(C(N)=O)cc4F)n3)cc2F)nc2ccc(C(=O)O)cc21 [Example 554, 2-(4-(6-((4-carbamoyl-2-fluorobenzyl)oxy)pyridin-2-yl)-2,5-difluorobenzyl)-1-(2-methoxyethyl)-1H-benzo[d]imidazole-6-carboxylic acid] | 48.2 nM | 4.17 mL/min/kg |  | 
COCCn1c(Cc2ccc(-c3cccc(OCc4ccc(C#N)cc4F)n3)cc2F)nc2ccc(P(=O)(O)O)cc21 [Example 555, (2-(4-(6-((4-cyano-2-fluorobenzyl)oxy)pyridin-2-yl)-2-fluorobenzyl)-1-(2-methoxyethyl)-1H-benzo[d]imidazol-6-yl)phosphonic acid] | 57.9 nM | 1.83 mL/min/kg |  | 
COCCn1c(Cc2cc(F)c(-c3cccc(OCc4ccc(C(F)(F)F)cc4F)n3)cc2F)nc2ccc(C(=O)O)cc21 [Example 557, 2-(2,5-difluoro-4-(6-((2-fluoro-4-(trifluoromethyl)benzyl)oxy)pyridin-2-yl)benzyl)-1-(2-methoxyethyl)-1H-benzo[d]imidazole-6-carboxylic acid] | 0.47 nM | 2.17 mL/min/kg |  | 
